Article PMC11167517, “Synthesis, computational docking and molecular dynamics studies of a new class of spiroquinoxalinopyrrolidine embedded chromanone hybrids as potent anti-cholinesterase agents” (RSC Advances, 2024)

How the values were obtained:
[1] = target: acetylcholinesterase (AChE) (Electrophorus electricus, UniProt O42275); assay: In vitro acetylcholinesterase inhibitory assay (DTNB/acetylthiocholine iodide, absorbance at 412 nm); type: biochemical; details: IC50(BChE)/IC50(AChE)
Experimental: (§1) Acetylcholine is an important neurotransmitter involved in memory and cognition.[34] The enzymes AChE and BChE act on these neurotransmitters and degrade them to attenuate acetylcholine-mediated effects.[35] In neurodegenerative diseases, a reduced acetyl choline level is detrimental, leading to impaired memory and cognition.[36] […]
(§2) of test samples and 20 µL of 0.09 units/mL acetylcholinesterase enzyme. After 15 min. of incubation at 25 °C, 10 µL of 10 mM 5,50 -dithiobis-2-nitrobenzoic acid (DTNB) was added into each well followed by 10 µL of 14 mM acetylthiocholine iodide. Thirty minutes after the initiation of enzymatic reaction, absorbance of the colored end-product was measured using BioTek Power Wave X 340 Microplate Spectrophotometer at 412 nm. For butyrylcholinesterase (BuChE) inhibitory assay, the same procedure described above was followed, except for the use of enzyme and substrate, instead of which, butyrylcholine esterase from equine serum and S-butyrylthiocholine chloride were used. IC50 value was calculated by standard protocol Each test was conducted in triplicate. Absorbance of the test samples was corrected by subtracting the absorbance of their respective blank. Percentage inhibition was calculated using […]
(§3) Absorbance of control Absorbance of Sample
(§4) Percentage of inhibition = X 100
(§5) Selectivity for AChE defined as IC 50(BChE)/IC50(AChE).
(§6) Selectivity for BChE defined as IC 50(AChE)/IC50(BChE). […]

[2] = target: T1, butyrylcholine esterase from equine serum (BChE) (Equus caballus, UniProt P81908); assay: biochemical; details: for BChE selectivity: IC50(AChE)/IC50(BChE); for IC50: in vitro, triplicate, read-out: BChE inhibition IC50 μM (±SD)
T1 construct: esterase from equine serum; from tissue; host or cells: equine serum
Experimental: as §1, §2, §3, §4, §5, §6

acetylcholinesterase (AChE), sequence (O42275 24-633): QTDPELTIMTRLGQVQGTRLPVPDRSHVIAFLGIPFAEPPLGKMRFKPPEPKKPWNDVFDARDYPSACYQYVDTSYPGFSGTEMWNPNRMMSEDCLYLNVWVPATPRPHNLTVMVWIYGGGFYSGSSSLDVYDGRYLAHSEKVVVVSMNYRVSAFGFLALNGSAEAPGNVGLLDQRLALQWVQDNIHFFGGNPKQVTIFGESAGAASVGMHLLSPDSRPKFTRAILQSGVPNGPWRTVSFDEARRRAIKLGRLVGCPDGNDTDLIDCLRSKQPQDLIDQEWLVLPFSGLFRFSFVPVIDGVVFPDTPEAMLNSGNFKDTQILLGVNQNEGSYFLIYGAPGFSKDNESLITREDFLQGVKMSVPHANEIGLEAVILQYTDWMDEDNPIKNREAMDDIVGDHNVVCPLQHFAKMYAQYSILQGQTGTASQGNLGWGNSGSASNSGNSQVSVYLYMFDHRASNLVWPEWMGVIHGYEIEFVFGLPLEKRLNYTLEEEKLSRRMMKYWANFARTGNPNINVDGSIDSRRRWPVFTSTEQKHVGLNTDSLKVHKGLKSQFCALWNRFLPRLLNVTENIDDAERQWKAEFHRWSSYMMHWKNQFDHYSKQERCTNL
T1 sequence (P81908 whole entry): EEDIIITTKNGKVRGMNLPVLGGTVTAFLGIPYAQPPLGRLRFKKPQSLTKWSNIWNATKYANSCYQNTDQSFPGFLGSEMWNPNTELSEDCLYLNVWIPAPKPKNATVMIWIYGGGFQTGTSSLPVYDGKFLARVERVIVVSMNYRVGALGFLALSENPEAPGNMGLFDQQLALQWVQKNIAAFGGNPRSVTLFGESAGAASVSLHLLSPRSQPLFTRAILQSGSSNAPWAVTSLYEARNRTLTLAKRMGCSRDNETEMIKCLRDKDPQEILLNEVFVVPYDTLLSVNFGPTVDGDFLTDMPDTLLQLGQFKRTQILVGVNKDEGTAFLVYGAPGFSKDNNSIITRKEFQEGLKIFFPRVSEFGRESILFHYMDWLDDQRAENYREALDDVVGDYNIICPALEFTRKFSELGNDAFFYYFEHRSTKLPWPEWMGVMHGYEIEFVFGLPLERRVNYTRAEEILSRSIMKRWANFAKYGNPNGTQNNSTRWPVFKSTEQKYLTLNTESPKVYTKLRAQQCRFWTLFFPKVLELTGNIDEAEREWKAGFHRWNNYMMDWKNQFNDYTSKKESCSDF

Compound	AChE selectivity [1]	BChE selectivity [2]	IC50 [2] [µM]
O=C1c2ccccc2OC[C@@]12[C@H](c1ccccc1)[C@@H](Cc1ccccc1)NC21c2ccccc2-c2nc3ccccc3nc21 (stereo partly drawn) [Compound 5a]	1.27	0.79	28.12 ± 0.25
O=C1c2ccccc2OCC12C(c1ccccc1Cl)C(Cc1ccccc1)NC21c2ccccc2-c2nc3ccccc3nc21 (stereo not drawn) [Compound 5c, 5-Benzyl-4-(2-chlorophenyl)-2-spiro[2,6′′]indenoquinoxalino-3-spiro[3,3′]-chromanonopyrrolidine]	4.92	0.20	22.16 ± 0.14
Cc1ccc([C@@H]2[C@@H](Cc3ccccc3)NC3(c4ccccc4-c4nc5ccccc5nc43)[C@]23COc2ccccc2C3=O)cc1 (stereo partly drawn) [Compound 5g]	1.38	0.72	29.8 ± 0.12
COc1ccc([C@@H]2[C@@H](Cc3ccccc3)NC3(c4ccccc4-c4nc5ccccc5nc43)[C@]23COc2ccccc2C3=O)cc1 (stereo partly drawn) [Compound 5i]	1.29	0.77	29.18 ± 0.12
O=C1c2ccccc2OC[C@@]12[C@H](c1ccccc1F)[C@@H](Cc1ccccc1)NC21c2ccccc2-c2nc3ccccc3nc21 (stereo partly drawn) [Compound 5e]	3.83	0.26	20.2 ± 0.24
O=C1c2ccccc2OC[C@@]12[C@H](c1ccc(Br)cc1)[C@@H](Cc1ccccc1)NC21c2ccccc2-c2nc3ccccc3nc21 (stereo partly drawn) [Compound 5b]	1.32	0.76	24.12 ± 0.16
O=C1c2ccccc2OC[C@@]12[C@H](c1ccc(Cl)cc1)[C@@H](Cc1ccccc1)NC21c2ccccc2-c2nc3ccccc3nc21 (stereo partly drawn) [Compound 5d]	2.72	0.37	21.02 ± 0.18
O=C1c2ccccc2OC[C@@]12[C@H](c1cccc([N+](=O)[O-])c1)[C@@H](Cc1ccccc1)NC21c2ccccc2-c2nc3ccccc3nc21 (stereo partly drawn) [Compound 5j]	1.93	0.52	20.16 ± 0.2
COc1cccc([C@@H]2[C@@H](Cc3ccccc3)NC3(c4ccccc4-c4nc5ccccc5nc43)[C@]23COc2ccccc2C3=O)c1 (stereo partly drawn) [Compound 5h]	1.25	0.80	30.15 ± 0.1
O=C1c2ccccc2OC[C@@]12[C@H](c1ccc(F)cc1)[C@@H](Cc1ccccc1)NC21c2ccccc2-c2nc3ccccc3nc21 (stereo partly drawn) [Compound 5f]	5.67	0.18	18.14 ± 0.06
